Where two headings read alike, the source gives them in different places.
How the values were obtained:
human RXFP4 = target: T1, human RXFP4 (Homo sapiens, UniProt Q8TDU9); experiment: competitive Eu-R3/I5 binding, RXFP4
T1 construct: expressed in transfected cells
Experimental: CHO-K1 cells stably transfected with RXFP3 or RXFP4 were plated onto pre-coated poly-L-lysine 96-well plates. The competitive binding assays were performed with 5 nM Eu-H3 B1-22R (RXFP3) or Eu-R3/I5 (RXFP4) in the presence of increasing amounts of ligands as previously described[21],[86],[87]. Time-resolved fluorescence measurements were carried out at an excitation wavelength of 340 nm and an emission wavelength of 614 nm on a BMG POLARstar plate reader (BMG Labtech, Melbourne, Australia). Binding was performed in at least three independent experiments with triplicate determinations within each assay. Data are presented as means ± S.E.M. of specific binding and were fitted using a one-site binding curve in Prism software (GraphPad).
All functional study data were analyzed using GraphPad Prism 8.3 (GraphPad Software) and presented as means ± S.E.M. from at least three independent experiments. Dose-response curves were evaluated with a three-parameter logistic equation. The significance was determined with either a two-tailed Student’s t-test or one-way ANOVA with Dunnett’s multiple comparison test, and P < 0.05 was considered statistically significant.

RXFP4 T121A = target: T2, RXFP4 T121A (Homo sapiens, UniProt Q8TDU9, T121A); experiment: cAMP accumulation, RXFP4 T121A; type: cell-based; conditions: HEK293T
T2 construct: RXFP4(1-374)-; expressed in transfected cells; host or cells: HEK293T, transient (pCMV6)
T2 sequence (Q8TDU9 whole entry T121A): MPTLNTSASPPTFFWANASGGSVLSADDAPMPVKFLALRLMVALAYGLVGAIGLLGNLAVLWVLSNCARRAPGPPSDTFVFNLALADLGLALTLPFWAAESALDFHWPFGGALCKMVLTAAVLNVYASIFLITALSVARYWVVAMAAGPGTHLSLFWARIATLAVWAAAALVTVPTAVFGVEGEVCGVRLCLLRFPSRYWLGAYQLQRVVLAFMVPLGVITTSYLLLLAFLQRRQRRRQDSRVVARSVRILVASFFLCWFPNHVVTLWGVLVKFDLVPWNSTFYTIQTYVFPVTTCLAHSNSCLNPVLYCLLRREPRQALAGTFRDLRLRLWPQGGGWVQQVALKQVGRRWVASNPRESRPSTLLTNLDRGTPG
Text: (§1) The full-length human RXFP4 (NCBI Reference Sequence: NM_181885.3) was cloned into a modified pFastBac vector (Invitrogen) with HA signal peptide to enhance receptor expression, followed by a 10× histidine tag and BRIL insertion at the N terminus. LgBiT subunit (Promega) was fused at the C terminus of RXFP4 connected by a 15-amino acid polypeptide linker. […] The engineered human Gαi2, Gβ1, bovine Gγ2, and scFv16 were cloned into the pFastBac vector (Invitrogen), respectively. For cAMP accumulation assay, human RXFP4 and RXFP3 (NCBI Reference Sequence: NM_016568.3) were cloned into pCMV6 constructs (OriGene Technologies). The mutant receptors were modified by site-directed mutagenesis in the setting of the WT constructs, with the primers designed by QuikChange Primer Design [QuickChange Primer Design (http://agilent.com.cn)] and carried out using Phanta Max Master (Vazyme). N-terminal Flag tag was added to both WT and mutant receptors for surface expression measurement. […]
(§2) CHO-K1 (ATCC, Cat#CCL-61) cells stably expressing human RXFP4 (hRXFP4-CHO) or RXFP3 (hRXFP3-CHO) were maintained in DMEM/F12 (Gibco) supplemented with 10% (v/v) fetal bovine serum (FBS) and 2 mM L-glutamine. […] Following 24 h culturing, the transfected cells were ready for detection.
(§3) Ligands were verified for their bioactivity in the beginning in hRXFP4-CHO, which were ready for use after 24 h culturing. […] The time-resolved fluorescence resonance energy transfer (TR-FRET) signals were detected by an EnVision multilabel plate reader (PerkinElmer) with the emission window ratio of 665 nm over 620 nm under 320 nm excitation. […]
(§4) Inhibition of forskolin-induced cAMP accumulation was performed in HEK293T cells transiently transfected with WT and mutant receptors. All the mutant constructs were modified by single-point mutation in the setting of the WT receptor. cAMP accumulation data were analyzed using a three-parameter logistic equation to determine pEC50 and Emax values. Emax values for mutants are defined as the window between the maximal response and vehicle control (no ligand) and expressed as a percentage of the WT. […]

RXFP4 R208A = target: T3, RXFP4 R208A (Homo sapiens, UniProt Q8TDU9, R208A); experiment: cAMP accumulation, RXFP4 R208A; type: cell-based; conditions: HEK293T
T3 construct: RXFP4(1-374)-; expressed in transfected cells; host or cells: HEK293T, transient (pCMV6)
T3 sequence (Q8TDU9 whole entry R208A): as the sequence (Q8TDU9 whole entry T121A) above, with A121T, R208A counted along it
Text: as §1, §2, §3, §4

RXFP4 V122A = target: T4, RXFP4 V122A (Homo sapiens, UniProt Q8TDU9, V122A); experiment: cAMP accumulation, RXFP4 V122A; type: cell-based; conditions: HEK293T, mean ± S.E.M.
T4 construct: RXFP4(1-374)-; expressed in transfected cells; host or cells: HEK293T, transient (pCMV6)
T4 sequence (Q8TDU9 whole entry V122A): as the sequence (Q8TDU9 whole entry T121A) above, with A121T, V122A counted along it
Text: (§5) The full-length human RXFP4 (NCBI Reference Sequence: NM_181885.3) was cloned into a modified pFastBac vector (Invitrogen) with HA signal peptide to enhance receptor expression, followed by a 10× histidine tag and BRIL insertion at the N terminus. LgBiT subunit (Promega) was fused at the C terminus of RXFP4 connected by a 15-amino acid polypeptide linker. […] The engineered human Gαi2, Gβ1, bovine Gγ2, and scFv16 were cloned into the pFastBac vector (Invitrogen), respectively. For cAMP accumulation assay, human RXFP4 and RXFP3 (NCBI Reference Sequence: NM_016568.3) were cloned into pCMV6 constructs (OriGene Technologies). […]
as §2, §3

RXFP4 Q205A = target: T5, RXFP4 Q205A (Homo sapiens, UniProt Q8TDU9, Q205A); experiment: cAMP accumulation, RXFP4 Q205A; type: cell-based
T5 construct: RXFP4(1-374)-; expressed in transfected cells; host or cells: HEK293T, transient (pCMV6)
T5 sequence (Q8TDU9 whole entry Q205A): as the sequence (Q8TDU9 whole entry T121A) above, with A121T, Q205A counted along it
Text: as §5, §2, §3

RXFP4 V122S = target: T6, RXFP4 V122S (Homo sapiens, UniProt Q8TDU9, V122S); experiment: cAMP accumulation, RXFP4 V122S; type: cell-based; conditions: HEK293T, mean ± S.E.M.
T6 construct: RXFP4(1-374)-; expressed in transfected cells; host or cells: HEK293T, transient (pCMV6)
T6 sequence (Q8TDU9 whole entry V122S): as the sequence (Q8TDU9 whole entry T121A) above, with A121T, V122S counted along it
Text: as §5, §2, §3

RXFP4 D104A = target: T7, RXFP4 D104A (Homo sapiens, UniProt Q8TDU9, D104A); experiment: cAMP accumulation, RXFP4 D104A; type: cell-based
T7 construct: RXFP4(1-374)-; expressed in transfected cells; host or cells: HEK293T, transient (pCMV6)
T7 sequence (Q8TDU9 whole entry D104A): as the sequence (Q8TDU9 whole entry T121A) above, with D104A, A121T counted along it
Text: as §5, §2, §3

RXFP4 W279A = target: T8, RXFP4 W279A (Homo sapiens, UniProt Q8TDU9, W279A); experiment: cAMP accumulation, RXFP4 W279A; type: cell-based
T8 construct: RXFP4(1-374)-; expressed in transfected cells; host or cells: HEK293T, transient (pCMV6)
T8 sequence (Q8TDU9 whole entry W279A): as the sequence (Q8TDU9 whole entry T121A) above, with A121T, W279A counted along it
Text: as §5, §2, §3

T1 sequence (Q8TDU9 whole entry): as the sequence (Q8TDU9 whole entry T121A) above, with A121T counted along it

In the case of `CCOc1cc2c(cc1OC)CCN(C(=O)N1CCOCC1)[C@H]2CCc1c[nH]c2ccc(OC)cc12` [DC591053, (S)-(7-ethoxy-6-methoxy-1-(2-(5-methoxy-1H-indol-3-yl)ethyl)−3,4-dihydroisoquinolin-2(1H)-yl)(morpholino)methanone], the Ki (human RXFP4; stably-transfected CHO-K1, 5 nM Eu-R3/I5, mean ± S.E.M., n = 3, read-out: pKi (converted)) is reported as 112 nM, the “decrease of potency vs WT” value (RXFP4 T121A) is reported as 20.9 fold and the EC50 (RXFP4 T121A; 1.5 μM forskolin, mean ± S.E.M., n = 3 or 4, N.A., not active) is reported as 724 nM. For the same compound, the Emax (RXFP4 T121A; mean ± S.E.M.) was 31.53 ± 7.09 % WT, the “decrease of potency vs WT” value (RXFP4 R208A) was 7.6 fold and the EC50 (RXFP4 R208A; 1.5 μM forskolin, mean ± S.E.M., n = 3, N.A., not active) was 263 nM. It also gave an Emax (RXFP4 R208A; mean ± S.E.M.) of 52.09 ± 4.26 % WT.

For `CC[C@H](C)[C@@H]1NC(=O)[C@H](Cc2ccc(O)cc2)NC(=O)[C@H]([C@@H](C)CC)NC(=O)[C@H](C(C)C)NC(=O)[C@H]([C@@H](C)O)NC(=O)[C@H](CCCNC(=N)N)NC(=O)[C@H]([C@@H](C)CC)NC(=O)[C@H](Cc2ccc(O)cc2)NC(=O)[C@H](CCC(=O)O)NC(=O)[C@H](CC(C)C)NC(=O)CNC(=O)[C@@H](NC(=O)[C@H](CC(C)C)NC(=O)[C@H](CCCNC(=N)N)NC(=O)[C@@H](NC(=O)[C@H](CO)NC(=O)[C@H](CCC(=O)O)NC(=O)[C@@H](N)CCCCN)C(C)C)CSSC[C@@H]2NC(=O)[C@@H](NC(=O)[C@H](CC(C)C)NC(=O)[C@@H](NC(=O)[C@H](CCC(N)=O)NC(=O)[C@H](CC(C)C)NC(=O)[C@H](CC(=O)O)NC(=O)[C@@H](N)CCC(N)=O)[C@@H](C)O)CSSC[C@H](NC(=O)CNC(=O)[C@H](CC(=O)O)NC(=O)[C@H]([C@@H](C)O)NC2=O)C(=O)N[C@@H](CO)C(=O)N[C@@H](CCSC)C(=O)N[C@@H]([C@@H](C)O)C(=O)N[C@@H](CC(=O)O)C(=O)N[C@@H](CC(C)C)C(=O)N[C@@H](CO)C(=O)N[C@@H](C)C(=O)N[C@@H](CC(C)C)C(=O)N[C@H](C(=O)O)CSSC[C@@H](C(=O)N[C@@H](C)C(=O)N[C@@H](CO)C(=O)N[C@@H](CO)C(=O)N[C@@H](CCCNC(=N)N)C(=O)N[C@@H](Cc2c[nH]c3ccccc23)C(=O)O)NC1=O` [INSL5, insulin-like peptide 5], the EC50 (RXFP4 V122A; 1.5 μM forskolin, n = 3) was 3.63 nM, the Emax (RXFP4 V122A) was 33.20 ± 3.27 % WT and the EC50 (RXFP4 Q205A) was 3.98 nM. For the same compound, the Emax (RXFP4 Q205A; HEK293T, mean ± S.E.M.) was 50.94 ± 6.54 % WT, the EC50 (RXFP4 V122S; 1.5 μM forskolin, n = 3) was 1.02 nM and the Emax (RXFP4 V122S) was 45.95 ± 4.97 % WT. The Ki (human RXFP4) was 6.46 nM, the EC50 (RXFP4 D104A) was 1.62 nM and the Emax (RXFP4 D104A; HEK293T, mean ± S.E.M.) was 59.09 ± 6.41 % WT. The EC50 (RXFP4 W279A) was 1.86 nM and the Emax (RXFP4 W279A; HEK293T, mean ± S.E.M.) was 43.30 ± 3.29 % WT.

From paper PMC9886975, “Ligand recognition mechanism of the human relaxin family peptide receptor 4 (RXFP4)” (Nature Communications, 2023)
